Series [1] relates to J20 mouse model of AD. In words: Morris water maze in J20 mouse model of AD. In kind it is in vivo, mice. To be noted: for escape latencies in the hidden platform phase: 4-week treatment, 15 mg/kg/day orally, 20 month old J20 mice, data not shown; for MWM performance, escape latencies in the invisible platform phase / percentage of time spent in the right quadrant (memory retention): 10 weeks of treatment; for MWM performance, escape latencies in the invisible platform phase: 15 mg/Kg orally once daily, 21-22 month-old J20 mice, vs saline; for percentage of time spent in the right quadrant (memory retention): platform removed, days 7 and 9, 15 mg/Kg, J20 mice, randomness = 25%. As to the method:
Transgenic mice overexpressing human amyloid precursor protein (hAPP) with the Swedish (K670N/M671L) and Indiana (V717F) familial AD mutations under control of the PDGF β-chain promoter were used (J20 line) (Mucke et al, 2000). The mice were on an inbred C57BL/6J genetic background. […] Results were compared with those obtained from age-matched negative littermates (controls). To test the effect of the PDE5 inhibitors in cognition capacity related to aging, a second treatment was carried out using 10-12 month-old non-transgenic (wild type) mice on an inbred C57/B6xSJL genetic background. […] The MWM test was used to evaluate spatial memory as previously described (Hsiao et al., 1996; Reed et al., 2010; Ricobaraza et al., 2009). After treatments, groups of animals underwent spatial reference learning and memory testing in the MWM. The water maze was a circular pool (diameter 1.2 m) filled with water maintained at 20 °C and made opaque by the addition of non-toxic white paint. Mice were trained for three consecutive days (8 trials/day) swimming to a raised platform (visible-platform). No distal visible cues were present during this phase. The same platform location was used for all visible-platform sessions and was changed for the invisible-platform training (submerged 1 cm beneath the surface) conducted over […] (4 trials/day) with all visible distal cues present in this phase. In both visible- and hidden-platform versions, mice were placed pseudo-randomly in selected locations, facing toward the wall of the pool to eliminate the potentially confounding contribution of extramaze spatial cues. Each trial was terminated when the mouse reached the platform or after 60 seconds, whichever came first. To test the retention, three probe trials were performed at the beginning of 4th, 7th, and the last day of the test (day 9). In the probe trials the platform was removed from the pool, and the percentage of time spent in the quadrant where the platform was previously set was recorded. All trials were monitored by a camera above the center of the pool connected to a SMART-LD program (Panlab S.L., Barcelona, Spain) for subsequent analysis of escape latencies, swimming speed, path length and percent time spent in each quadrant of the pool during probe trials. All experimental procedures were performed blind to groups.

Series [2] has as its system pTau. Kind of series: Western blot of pTau in hippocampus of J20 mice. In kind it is in vivo. To be noted: J20 mice (22-month-old) treated for 10 weeks, normalized to total Tau. As to the method:
(§1) Results were compared with those obtained from age-matched negative littermates (controls). To test the effect of the PDE5 inhibitors in cognition capacity related to aging, a second treatment was carried out using 10-12 month-old non-transgenic (wild type) mice on an inbred C57/B6xSJL genetic background.
Twenty four hours after the fear conditioning test, animals (n=5, per group) were sacrificed and the brains removed for biochemical studies. The cortex and hippocampus were dissected, homogenized, and processed as described below for subsequent western blot analysis. Under xylazine/ketamine anesthesia, animals (n=4 per group) were perfused transcardially with saline and 4% paraformaldehyde in phosphate buffer (PB). After perfusion, brains were removed, post-fixed in the same fixative solution for 1 h at room temperature and cryoprotected in 30% sucrose solution in PB overnight at 4 °C. Microtome sections ([…]) were cut coronally, collected free-floating and stored in 30% ethylene glycol, 30% glycerol, and 0.1M PB at - 20 °C until processed.
(§2) Total tissue homogenates were obtained by homogenizing the hippocampus in a cold lysis buffer with protease inhibitors (0.2 M NaCl, 0.1 M HEPES, 10% glycerol, 200 mM NaF, 2 mM Na4P2O7, 5 mM EDTA, 1 mM EGTA, 2 mM DTT, 0.5 mM PMSF, 1 mM Na3VO4, 1 mM benzamidine, 10 µg/ml leupeptin, 400 U/ml aprotinin), centrifuged at 14,000 x g 4 °C for 20 minutes and the supernatant was aliquoted and stored at -80 °C. Total protein concentrations were determined using the BioRad Bradford protein assay (BioRad Laboratories).
Protein samples were mixed with an equal volume of 2 x Laemmli sample buffer, resolved onto SDS-polyacrylamide gels and transferred to nitrocellulose membrane. […] Following two washes in PBS/Tween-20 or TBS/Tween-20 and one PBS or TBS alone, immunolabeled protein bands were detected by using HRP-conjugated anti-rabbit or anti-mouse antibody (Santa Cruz; dilution 1:5000) following an enhanced chemiluminescence system (ECL, GE Healthcare Bioscience, Buckinghamshire, UK), and autoradiographic exposure to Hyperfilm™ECL (GE Healthcare Bioscience). Quantity OneTM software v.4.6.3 (Bio-Rad) was used for quantification.
For orientation: In western blotting, separated proteins are transferred to a membrane and probed.

Series [3] relates to synaptophysin. In words: Western blot of synaptophysin in hippocampus of J20 mice. In kind it is in vivo. Particulars: J20 mice treated for 10 weeks. As to the method: as §1
Twenty four hours after the fear conditioning test, animals (n=5, per group) were sacrificed and the brains removed for biochemical studies. The cortex and hippocampus were dissected, homogenized, and processed as described below for subsequent western blot analysis. […]
as §2
Protein samples were mixed with an equal volume of 2 x Laemmli sample buffer, resolved onto SDS-polyacrylamide gels and transferred to nitrocellulose membrane. […] Quantity OneTM software v.4.6.3 (Bio-Rad) was used for quantification.

The conditions of series [4]: EMEA scientific discussion for Cialis (WC500026314); cited from earlier work.
For series [5], the system named is central nervous system (CNS) function. Particulars: doses ≤100 mg/kg orally; EMEA assessment report for Adcirca (WC500069602); cited from earlier work.
The subject of series [6] is AD mouse models. To be noted: Puzzo et al., 2009; cited from earlier work.
The test system of series [7] is maternal-separated rat pups. Particulars: Baek et al. (2011); cited from earlier work.
The test system of series [8] is rat model of embolic stroke. To be noted: Zhang et al. (2006); cited from earlier work.

The source of these data is EP2535049A1 (Proyecto de Biomedicina Cima, S.L., priority 2011, dated 2012).

Entries after “also recorded” stand apart in the source; their conditions may differ.

As to `CN1CC(=O)N2[C@H](c3ccc4c(c3)OCO4)c3[nH]c4ccccc4c3C[C@@H]2C1=O` [tadalafil, (6R-trans)-6-(1,3-benzodioxol-5-yl)-2,3,6,7,12,12a-hexahydro-2-methyl-pyrazino [1',2':1,6] pyrido [3,4-b]indole-1,4-dione], in series [1], the “escape latencies in the hidden platform phase” value was “no significant differences were detected” and the “percentage of time spent in the right quadrant (memory retention)” value was “higher than 25%”. Besides, the “MWM performance, escape latencies in the invisible platform phase” value in series [1] (15 mg/kg) was “even better than those of non-transgenic mice; also recorded: cognitive improvement was higher in the group of tadalafil than in the group of sildenafil; also recorded: markedly improves the performance”. Also, in series [2], the “pTau levels (AT8) by Western blotting” value is recorded as “decrease in Tau pathology” and the “pTau levels (PHF1) by Western blotting” value is “more marked in tadalafil-treated mice”. In addition, the “pTau levels (AT8) by Western blotting” value in series [2] (listed as Tadalafil) is on record as “even more effective than sildenafil”. Besides, the “expression levels of synaptophysin” value in series [3] is given as “recovered the low expression levels”. For the same molecule, the “observed in the central nervous system” value in series [4] is given as “not observed”. Also, in series [5], the “effects on central nervous system (CNS) function” value is “no effects”. Moreover, the “effect on memory in AD mouse models” value in series [6] is listed as “no effect was demonstrated”. Besides, the “depressive symptoms, memory impairment, apoptosis and cell proliferation in the hippocampus” value in series [7] was “improves depressive symptoms, ameliorates memory impairment, as well as suppresses apoptosis and enhances cell proliferation”. The neurological functional recovery entry in series [8] is listed as “improves neurological functional recovery”.

`CCCc1nn(C)c2c(=O)[nH]c(-c3cc(S(=O)(=O)N4CCN(C)CC4)ccc3OCC)nc12` [sildenafil]: in series [1], the “escape latencies in the hidden platform phase” value is “no significant differences were detected”; the “MWM performance, escape latencies in the invisible platform phase” value is “markedly improves the performance”; the “percentage of time spent in the right quadrant (memory retention)” value was “higher than 25%”. Moreover, in series [2], the “pTau levels (AT8) by Western blotting” value is on record as “decrease in Tau pathology”. For the same molecule, the “expression levels of synaptophysin” value in series [3] is “recovered the low expression levels”. Further, in series [6], the “effect on memory in AD mouse models” value was “efficacious drug in improving memory”.
